Experimental data reported in ChEMBL document CHEMBL4196127, “Discovery of AM-6226: A Potent and Orally Bioavailable GPR40 Full Agonist That Displays Efficacy in Nonhuman Primates” (ACS Med Chem Lett, 2018).
Blank lines part the entries; values can stand above or below the compound they belong to.

How the values were obtained:
[1] = molecular target: T1, Free fatty acid receptor 1 (Homo sapiens, UniProt O14842); experiment: Agonist activity at GPR40 (unknown origin) expressed in CHO cells incubated for 2 hrs measured over 20 secs in presence of human serum albumin by aequorin based luminescence assay; format: functional, cell-based
T1 sequence (O14842 whole entry): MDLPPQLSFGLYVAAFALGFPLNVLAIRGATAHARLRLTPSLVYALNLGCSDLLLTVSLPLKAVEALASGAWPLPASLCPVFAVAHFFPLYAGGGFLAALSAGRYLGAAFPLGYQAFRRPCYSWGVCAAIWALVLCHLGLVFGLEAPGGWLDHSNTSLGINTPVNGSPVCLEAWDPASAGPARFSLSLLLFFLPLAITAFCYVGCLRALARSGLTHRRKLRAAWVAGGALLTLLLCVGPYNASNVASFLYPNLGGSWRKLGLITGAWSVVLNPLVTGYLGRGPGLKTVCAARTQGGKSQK

[2] = molecular target: T1, Free fatty acid receptor 1; experiment: Agonist activity at GPR40 (unknown origin) expressed in CHO cells incubated for 2 hrs measured over 20 secs in presence of human serum albumin by aequorin based luminescence assay relative to AM-1638; format: functional, cell-based
[3] = Fraction unbound in rat plasma at 0.5 mg/kg, iv or 2 mg/kg, po; format: ADME, organism-based
[4] = Cmax in rat at 2 mg/kg, po; format: ADME, organism-based; set-up: dose 2 mg/kg, route oral; conditions: in vivo
[5] = (§1) AUC in rat at 2 mg/kg, po; format: ADME, organism-based; conditions: in vivo
[6] = Half life in rat at 0.5 mg/kg, iv; format: ADME, organism-based; conditions: in vivo
[7] = Oral bioavailability in rat at 2 mg/kg; format: ADME, organism-based; conditions: in vivo
[8] = Fraction unbound in dog plasma at 0.5 mg/kg, iv; format: ADME, organism-based, Canis lupus familiaris
[9] = Fraction unbound in cynomolgus monkey plasma at 0.5 mg/kg, iv; format: ADME, organism-based, Macaca fascicularis
[10] = AUC in dog at 2 mg/kg, po; format: ADME, organism-based, Canis lupus familiaris; conditions: in vivo
[11] = AUC in cynomolgus monkey at 10 mg/kg, po; format: ADME, organism-based, Macaca fascicularis; conditions: in vivo
Canis familiaris = experiment: Volume of distribution at steady state in dog at […]; format: ADME, organism-based, Canis lupus familiaris; conditions: in vivo
Cynomolgus monkey [12] = experiment: Volume of distribution at steady state in cynomolgus monkey at […]; format: ADME, organism-based, Macaca fascicularis; conditions: in vivo
[13] = Half life in dog at 0.5 mg/kg, iv; format: ADME, organism-based, Canis lupus familiaris; conditions: in vivo
[14] = Half life in cynomolgus monkey at 0.5 mg/kg, iv; format: ADME, organism-based, Macaca fascicularis; conditions: in vivo
[15] = Oral bioavailability in dog at 2 mg/kg; format: ADME, organism-based, Canis lupus familiaris; conditions: in vivo
[16] = Oral bioavailability in cynomolgus monkey at 10 mg/kg; format: ADME, organism-based, Macaca fascicularis; conditions: in vivo
Cynomolgus monkey [17] = experiment: Antidiabetic activity in prediabetic high fat feed cynomolgus monkey assessed as reduction in plasma glucose AUC at 10 mg/kg, po administered via gavage 2 hrs prior to glucose challenge by oral glucose tolerance test; format: functional, Macaca fascicularis; set-up: scale not given: the % may be the effect or the level left
[18] = Clearance in rat at 0.5 mg/kg, iv; conditions: in vivo
[19] = Clearance in dog at 0.5 mg/kg, iv; conditions: in vivo
[20] = Clearance in cynomolgus monkey at 0.5 mg/kg, iv; conditions: in vivo
Rattus norvegicus [21] = experiment: Volume of distribution at steady state in rat at 0.5 mg/kg, iv; conditions: in vivo
Rattus norvegicus [22] = experiment: as §1; format: ADME, organism-based; conditions: in vivo
Rattus norvegicus [23] = experiment: Clearance in rat at 0.5 mg/kg, iv; conditions: in vivo

EC50 [1]: 110 nM
Efficacy [2]: 100%
Compound: CCC[C@H](CC(=O)O)c1cccc(OCc2ccc(-c3cc(OC)ccc3F)c([C@@H]3CCCC3(C)C)c2)c1

EC50 [1]: 450 nM
Efficacy [2]: 120%
Compound: COc1ccc(F)c(-c2ccc(COc3cccc(CCC(=O)O)c3)cc2[C@@H]2CCCC2(C)C)c1

EC50 [1]: 140 nM
Efficacy [2]: 97%
Compound: COc1ccc(F)c(-c2ccc(COc3cccc([C@@H](CC(=O)O)C4CC4)c3)cc2C2CCCC2(C)C)c1 (mixture of isomers)

EC50 [1]: 90 nM
Efficacy [2]: 105%
Compound: CC[C@H](CC(=O)O)c1cc(F)cc(OCc2ccc(-c3cc(OC)ccc3F)c([C@@H]3CCCC3(C)C)c2)c1

EC50 [1]: 100 nM
Efficacy [2]: 100%
fraction unbound [3]: 0.003
Cmax [4]: 360 nM
AUC [5]: 2.43 µM·h
half-life [6]: 3.3 h
bioavailability [7]: 32%
clearance [18]: 8.17 mL/min/kg
Vdss (Rattus norvegicus [21]): 1.9 L/kg
Compound: COc1ccc(F)c(-c2ccc(COc3cccc([C@@H](CC(=O)O)C4CC4)c3F)cc2[C@@H]2CCCC2(C)C)c1

EC50 [1]: 100 nM
Efficacy [2]: 98%
Compound: COc1ccc(F)c(-c2ccc(COc3cccc([C@@H](CC(=O)O)CC4CC4)c3)cc2[C@@H]2CCCC2(C)C)c1

EC50 [1]: 210 nM
Efficacy [2]: 100%
Compound: CC[C@H](CC(=O)O)c1cc(OCc2ccc(-c3cc(OC)ccc3F)c([C@@H]3CCCC3(C)C)c2)ccc1F

Efficacy [2]: 100%
fraction unbound [3]: 0.01
AUC (Rattus norvegicus [22]): 15.1 µM·h
fraction unbound [9]: 0.012
AUC [11]: 18.8 µM·h
Vdss (Cynomolgus monkey [12]): 2 L/kg
bioavailability [16]: 71%
CL (Rattus norvegicus [23]): 15.2 mL/min/kg
clearance [20]: 13.5 mL/min/kg
Vdss (Rattus norvegicus [21]): 1.1 L/kg
Compound: COc1ccc(F)c(-c2ccc(COc3cccc([C@@H](CC(=O)O)C4CC4)c3)cc2C2=CCCC2(C)C)c1

Second part, the compound before the results:

Compound: CC[C@H](CC(=O)O)c1cccc(OCc2ccc(-c3cc(OC)ccc3F)c(C3CCCC3(C)C)c2)c1F (single isomer, unassigned)
EC50 [1]: 120 nM
Efficacy [2]: 104%
fraction unbound [3]: 0.003
Cmax [4]: 1180 nM
AUC [5]: 8.22 µM·h
half-life [6]: 2 h
bioavailability [7]: 72%
fraction unbound [8]: 0.034
fraction unbound [9]: 0.017
AUC [10]: 11.6 µM·h
AUC [11]: 80.4 µM·h
Vdss (Canis familiaris): 0.68 L/kg
Vdss (Cynomolgus monkey [12]): 0.5 L/kg
half-life [13]: 4.1 h
half-life [14]: 3.3 h
bioavailability [15]: 62%
bioavailability [16]: 91%
Activity (Cynomolgus monkey [17]): 18%
clearance [18]: 5.5 mL/min/kg
clearance [19]: 3.5 mL/min/kg
clearance [20]: 3.67 mL/min/kg
Vdss (Rattus norvegicus [21]): 0.81 L/kg

Compound: COc1ccc(F)c(-c2ccc(COc3cccc([C@H](C)CC(=O)O)c3)cc2[C@@H]2CCCC2(C)C)c1
EC50 [1]: 170 nM
Efficacy [2]: 106%

Compound: COc1ccc(F)c(-c2ccc(COc3cccc([C@@H](CC(=O)O)C4CC4)c3)cc2[C@H]2CCCC2(C)C)c1
EC50 [1]: 310 nM
Efficacy [2]: 100%

Compound: CC[C@@H](CC(=O)O)c1cccc(OCc2ccc(-c3cc(OC)ccc3F)c([C@@H]3CCCC3(C)C)c2)c1
EC50 [1]: 1960 nM
Efficacy [2]: 76%

Compound: COc1ccc(F)c(-c2ccc(COc3cccc([C@@H](CC(=O)O)C4CC4)c3)cc2[C@@H]2CCCC2(C)C)c1
EC50 [1]: 80 nM
Efficacy [2]: 101%
fraction unbound [3]: 0.006
Cmax [4]: 250 nM
AUC [5]: 1.83 µM·h
clearance [18]: 12 mL/min/kg
Vdss (Rattus norvegicus [21]): 1.68 L/kg

Compound: N[C@@H](CC(=O)N1CCn2c(nnc2C(F)(F)F)C1)Cc1cc(F)c(F)cc1F [SITAGLIPTIN]
Activity (Cynomolgus monkey [17]): 13%

Compound: COc1ccc(F)c(-c2ccc(COc3cccc([C@H](CC(=O)O)C4CC4)c3)cc2[C@@H]2CCCC2(C)C)c1
EC50 [1]: 1830 nM
Efficacy [2]: 89%

Compound: CC[C@H](CC(=O)O)c1ccc(F)c(OCc2ccc(-c3cc(OC)ccc3F)c(C3=CCCC3(C)C)c2)c1
EC50 [1]: 740 nM
Efficacy [2]: 82%

Compound: COc1ccc(F)c(-c2ccc(COc3cccc([C@@H](CC(=O)O)C4CCC4)c3)cc2[C@@H]2CCCC2(C)C)c1
EC50 [1]: 90 nM
Efficacy [2]: 100%

Compound: CC[C@H](CC(=O)O)c1cccc(OCc2ccc(-c3cc(OC)ccc3F)c([C@@H]3CCCC3(C)C)c2)c1
EC50 [1]: 80 nM
Efficacy [2]: 102%
fraction unbound [3]: 0.006
Cmax [4]: 370 nM
AUC [5]: 1.74 µM·h
half-life [6]: 2.1 h
bioavailability [7]: 29%
clearance [18]: 11.2 mL/min/kg
Vdss (Rattus norvegicus [21]): 1.12 L/kg
